From publication PMC6930570, “2-Arylidene-1-indandiones as Pleiotropic Agents with Antioxidant and Inhibitory Enzymes Activities” (Molecules, 2019) come the findings set out here.

Data set [1] concerns carrageenin-induced rat paw edema. Kind of data set: Inhibition of the carrageenin-induced rat paw edema (CPE). The conditions noted are these: Rattus norvegicus, ip; 0.01 mmol/kg body weight, intraperitoneally, 3.5 h after carrageenin; read-out: CPE % (reduction of the rat paw edema). The data set is classed as in vivo, Fisher 344 rats. An excerpt: Carrageenin-induced rat paw edema (CPE) model was used to study the in vivo anti-inflammatory activity of the tested derivatives and the results are presented in Table 3. […] Compounds 2, 7, 8, 10, and 12 presented small differences in their biological activity. The presence of the thienyl group as well as of the furyl leads to higher anti-inflammatory activity (1 and 3) while substitution with a phenyl group leads to two-fold decrease of the activity (28%).
Edema was induced in the right hind paw of Fisher 344 rats (150–200 g) by the intradermal injection of 0.1 mL 2% carrageenin in water. Both sexes were used while females pregnant were excluded. Each group was composed of 6–15 animals. The animals, which have been bred in our laboratory, were housed under standard conditions and received a diet of commercial food pellets and water ad libitum during the maintenance but they were entirely fasted during the experiment period. Our studies were in accordance with recognised guidelines on animal experimentation. (guidelines for the care and use of laboratory animals published by the Greek Government 160/1991, based on EU regulations 86/609). Rats were kept in the Centre of the School of Veterinary Medicine (EL54 BIO42), Aristotle University of Thessaloniki, which is registered by the official state veterinary authorities (presidential degree 56/2013, in harmonization with the European Directive 2010/63/EEC). The experimental protocols were approved by the Animal Ethics Committee of the Prefecture of Central Macedonia (no. 270079/2500). The tested compounds 0.01 mmol/kg body weight were suspended in water, with a few drops of Tween 80 and ground in a mortar before use and were given intraperitoneally simultaneously with the carrageenin injection. The rats were euthanized 3.5 h after carrageenin injection. The difference between the weight of the injected and uninjected paws was calculated for each animal. The change in paw weight was compared with that in control animals (treated with water) and expressed as a percent inhibition of the edema CPE % values […] [58, 59]. Indomethacin in 0.01 mmol/kg (47%). Values CPE % are the mean from two different experiments with a standard error of the mean less than 10% (Table 3).

Data set [2] can be described thus: Reducing activity of the stable radical DPPH. The class given is biochemical. How it is done:
The novel derivatives were studied for their interaction with the sTable 2,2-diphenyl-1-picrylhydrazyl free radical (DPPH)at concentration 50 µM, 100 µM and 200 µM after 20 and 60 min (Table 2). In this assay the DPPH radical is reduced transferring one electron from the antioxidant. Phenolic compounds such as catechol and derivatives generate phenoxide anions with strong antioxidant capacity. Nordihydroguaretic acid (NDGA), the reference compound acts by this mechanism. Compound 10 presents the highest scavenging activity at 100 µM after 20 min correlated with the presence of the phenolic OH. Compounds 3, 4, 5, 7 presented medium activities depending from time and concentration. The presence of the heteroatom O or S seems to influence the activity e.g., derivatives 1, 2, and 3. Replacement of phenyl ring (4) by a thienyl group (1) decreases antioxidant behavior. […] On the contrary the presence of the furyl ring (3) enhances reduction. Additionally, the presence of a π-dimethyl-amino group 6 reduces the scavenging ability whereas its absence in (5), increases the activity. The presence of two conjugated double bonds (5) leads to lower activity compared to the simpler compound 4. Compounds 9 and 10 present the highest milogP values (5.94). Both include a phenolic hydrogen in their structure. […] On the contrary in compound 9 steric reasons are possible to lead to a decrease. Lipophilicity seems to influence the interaction of compound 10.
To a solution of DPPH in absolute ethanol an equal volume of the compounds with final concentrations of 50, 100 and 200 µM from a stock solution of 10 mM (in 1% DMSO and ethanol) was added. After 20 and 60 min the absorbance was recorded at 517 nm at room temperature (Table 2).

Data set [3] is described as follows: ABTS+. decolorization assay. The data set is classed as biochemical. The note with it: 1 min, no = no action under the experimental conditions. The source says:
The radical cation ABTS^+• is directly generated through potassium persulfate by oxidation with no participation of an intermediary radical and then the reduction is followed by adding electron-donating antioxidants. In this assay the radical is generated before adding the antioxidant (decolorization assay). […] It seems that lipophilicity influences the activity, since both are presenting high lipophilicity values. […] The radical cation ABTS^+• was generated from an ABTS stock solution in water (7 mM) which was mixed with potassium persulfate (2.45 mM) and left in the dark at room temperature for 12–16 h before use. The results are recorded after 1min of the mixing solutions at 734 nm and compared to the appropriate standard inhibitor Trolox (Table 3).

A short description of data set [4]: Inhibition of linoleic acid peroxidation induced by AAPH. The conditions noted are these: no = no action under the experimental conditions. The data set is classed as biochemical. An excerpt: In the water soluble 2,2′-azobis(2-amidinopropane) hydrochloride (AAPH) the free radicals are produced in vitro through spontaneous thermal decomposition resembling to lipid peroxidation in cells due to the action of the peroxyl radicals. […] Compounds 11, 5, 4 and 3 presented no activity under the experimental conditions. From the experimental results it can be concluded that the 3,5-di-tert-butyl-group offers protection against lipid peroxidation. Electronic parameters expressed by the highest occupied molecular orbital (HOMO) describes better the biological activity (Equation (2)). log AAPH % = −22.042(± 8.731) HOMO − 4.853 (2.622)(2) n = 8, r = 0.930, r^2 = 0.864, q^2 = 0.567, s = 0.146, F1,8 = 5.783, α = 0.1
The oxidation reaction was started with 2,2′-Azobis(2-amidinopropane) dihydrochloride (AAPH) as a free radical initiator. Linoleic acid sodium salt was oxidized at 234 nm to a conjugated diene hydroperoxide resulting an increased absorption. Trolox was used as reference compound (93%) (Table 3).

For the next data set, the system named is trypsin. Kind of data set: In vitro inhibition of trypsin induced proteolysis. The class given is biochemical. The conditions noted are these: bovine albumin substrate, no = no action under the experimental conditions. As for the experimental part: Serine proteases are implicated in the pathophysiology of inflammatory diseases and trypsin is well known years ago [66]. Trypsin has been associated with host defense reactions and tissue damage. In this study, the novel derivatives have been evaluated towards trypsin and thrombin. Compounds 8 and 9 present high activity.
The Kunitz method was used after modification using bovine albumin was used as substrate for trypsin. In this assay, first 200 μL of 0.075 mg/mL trypsin and 780 μL of phosphate buffer pH 7.6 including the tested compounds (20 μL in DMSO, final concentration 100 μM) were pre-incubated at 37 °C for 20 min and then added 1 mL of albumin (stock solution 6 g/100 mL in phosphate buffer 0.1 M, pH 7.6) and incubated at 37 °C for 30 min. Secondly 1mLof 5% trichloroacetic acid was added to the incubated solution to stop the enzyme’s reaction and allowed to set at room temperature for 1 h. Then the solution was filtered, and the absorption of the filtrate was measured at 280 nm using salicylic acid as a reference compound [61] (Table 3).

Another data set has as its target T1, soybean lipoxygenase (Glycine max, UniProt P08170).
T1 construct: purchased Sigma Chemical, Co. (St. Louis)
T1 sequence (P08170 1-839): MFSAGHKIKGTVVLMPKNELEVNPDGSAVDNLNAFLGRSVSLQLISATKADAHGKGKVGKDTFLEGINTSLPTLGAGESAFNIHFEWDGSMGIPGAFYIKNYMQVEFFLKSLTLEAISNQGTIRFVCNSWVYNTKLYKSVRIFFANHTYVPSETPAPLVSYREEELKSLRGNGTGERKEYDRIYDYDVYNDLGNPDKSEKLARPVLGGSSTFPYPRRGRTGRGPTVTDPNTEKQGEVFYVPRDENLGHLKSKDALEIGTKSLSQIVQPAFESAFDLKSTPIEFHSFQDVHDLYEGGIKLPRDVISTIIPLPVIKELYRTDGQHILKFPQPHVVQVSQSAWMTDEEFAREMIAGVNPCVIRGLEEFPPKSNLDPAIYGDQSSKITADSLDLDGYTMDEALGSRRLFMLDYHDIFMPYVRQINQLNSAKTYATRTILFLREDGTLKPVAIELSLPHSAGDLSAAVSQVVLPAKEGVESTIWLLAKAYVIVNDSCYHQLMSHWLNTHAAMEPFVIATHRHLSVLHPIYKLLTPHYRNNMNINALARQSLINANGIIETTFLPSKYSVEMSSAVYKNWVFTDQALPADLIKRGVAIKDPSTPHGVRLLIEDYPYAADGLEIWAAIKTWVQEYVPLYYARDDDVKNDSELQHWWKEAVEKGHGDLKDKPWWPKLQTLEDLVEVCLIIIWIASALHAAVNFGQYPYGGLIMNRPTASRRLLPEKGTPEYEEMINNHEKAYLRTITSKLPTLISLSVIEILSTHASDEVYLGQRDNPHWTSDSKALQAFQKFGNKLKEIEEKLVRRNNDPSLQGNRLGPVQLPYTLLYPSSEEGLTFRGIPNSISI
Kind of data set: Soybean lipoxygenase inhibition in vitro. The class given is biochemical. The conditions noted are these: sodium linoleate substrate, no = no action under the experimental conditions, read-out: LOX (% Inhibition 100 µM). How it is done: Thus, we used soybean LOX in our in vitro experiments.
In vitro study was performed as reported previously by our group. Sodium linoleate (0.1 mM) and 0.2 mL of enzyme solution (1/9 × 104 w/v in saline) were used for the incubation of the tested derivatives.

Data set [5] is described as follows: Experimental lipophilicity as RM values by RPTLC. Further details: key: RM = log[(1/Rf) − 1], from Rf values by RPTLC. The data set is classed as physicochemical. The conditions noted are these: methanol/water 70/30, 24 °C, average of at least 5 measurements. The source says:
Lipophilicity is a physicochemical parameter indicating the relationship of a drug to its biological activity. It affects ligand-target binding interactions, solubility, ADME (absorption, distribution, bioavailability, metabolism, and elimination) and toxicological effects. RPTLC (reverse phase thin layer chromatography) method was used for the experimental determination, as RM values. The RPTLC method is considered a secure, rapid and appropriate method for expressing the lipophilic character of a compound (Table 1).
Reversed phase TLC (RPTLC) was performed on silica gel plates impregnated with 5% (v/v) liquid paraffin in light petroleum ether. The mobile phase was a methanol/water mixture (70/30, v/v). The plates were developed in closed chromatography tanks saturated with the mobile phase at 24 °C. Spots were detected under UV light. Five individual measurements of Rf values were recorded and used for the determination of RM using the equation RM = log [(1/Rf) − 1] [59, 60, 62] (Table 2).

For the compound `COc1ccc2c(c1)c(CC(=O)O)c(C)n2C(=O)c1ccc(Cl)cc1` [Indomethacin, reference compound], the inhibition in vivo at 10 µmol/kg in data set [1] amounted to 47%.
Turning to `CC(Cc1ccc(O)c(O)c1)C(C)Cc1ccc(O)c(O)c1` (stereo not shown) [NDGA, Nordihydroguaretic acid, reference compound], in data set [2], the “RA% 50 µM 20 min” value worked out at 81%, the “RA% 50 µM 60 min” value was 83%, the “RA% 100 µM 20 min” value is on record as 87% and the “RA% 100 µM 60 min” value is 93%. Besides, in data set [2], the “RA% 200 µM 20 min” value was 94% and the “RA% 200 µM 60 min” value is reported as 96%.
On to `Cc1c(C)c2c(c(C)c1O)CCC(C)(C(=O)O)O2` (stereo not shown) [Trolox, reference compound], for which the “ABTS+. % 100 µM (decolorization activity)” value (“ABTS+. % 100 µM” for short) in data set [3] was 91%. The “AAPH% 100 µM (anti-lipid peroxidation)” value in data set [4] stood at 93%.
On to `O=C(O)c1ccccc1O` [Salycilic Acid, salicylic acid, reference compound], for which the “Iptr% 100 µM (inhibition of trypsin induced proteolysis)” value in the data set on trypsin is listed as 54%.
Consider `O=C1C(=C/C=C\c2ccccc2)C(=O)c2ccccc21` [Compound 5, (Z)-2-(3-phenylallylidene)-1H-indene-1,3(2H)-dione], for which the melting point is 165 to 167 °C. In data set [2], the “RA% 50 µM 20 min” value is 21%, the “RA% 50 µM 60 min” value was 25%, the “RA% 100 µM 20 min” value was determined as 44% and the “RA% 100 µM 60 min” value was determined as 48%. Also, in data set [2], the “RA% 200 µM 20 min” value stood at 57% and the “RA% 200 µM 60 min” value is reported as 72%. In addition, the “ABTS+. % 100 µM” value in data set [3] is on record as “no”. The inhibition at 100 µM on soybean lipoxygenase was 26.4%. Further, in the data set on trypsin, the “Iptr% 100 µM (inhibition of trypsin induced proteolysis)” value was “do not present any activity and no”. For the same compound, the “RM (±SD)” value in data set [5] was 0.158 ± 0. Also, in data set [4], the “AAPH% 100 µM (anti-lipid peroxidation)” value is “no activity and no”.
`O=C1C(=Cc2ccc3[nH]ccc3c2)C(=O)c2ccccc21` [Compound 11, (Z)-2-((1H-indol-5-yl)methylene)-1H-indene-1,3(2H)-dione] returned a melting point of 223 to 225 °C. For the same compound, in data set [2], the “RA% 50 µM 20 min” value is 2%, the “RA% 50 µM 60 min” value was 2%, the “RA% 100 µM 20 min” value was 19% and the “RA% 100 µM 60 min” value was found to be 19%. In addition, in data set [2], the “RA% 200 µM 20 min” value was found to be 10% and the “RA% 200 µM 60 min” value was determined as 10%. The “ABTS+. % 100 µM” value in data set [3] is on record as 8%. The inhibition at 100 µM on soybean lipoxygenase was found to be 38.6%. For the same compound, the “Iptr% 100 µM (inhibition of trypsin induced proteolysis)” value in the data set on trypsin turned out to be 6%. In data set [5], the “RM (±SD)” value was −0.196 ± 0.02. For the same compound, the “AAPH% 100 µM (anti-lipid peroxidation)” value in data set [4] is “no activity and no”.
